{"source": "patent US20240156996A1", "about": "“BIOCOMPATIBLE RADIONUCLIDE-CONTAINING COMPOSITIONS AND METHODS OF USE” (priority 2022, published 2024)", "experiment": "Encapsulation efficiency of 225Ac within PLGA nanoparticles (γ-ray spectroscopy after washing)", "format": "physicochemical", "conditions": "95:5, 90:10, 75:25 MeOH:DI H2O; FIG. 2", "procedure": "A double-emulsion solvent evaporation method was adapted for the synthesis of PLGA-chelator compound radioisotope complex. The main differences include: (1) using a cup-horn sonicator to generate emulsions and (2) decreasing the reagent volumes to minimize the generation of radiological waste. In a typical synthesis, 100 μL of PLGA dissolved in EtOAc at 40 mg/mL were mixed with 10 μL of 225Ac-chelator compound radioisotope complex in a polar solution (i.e., DI H2O, MeOH, or a mixture of both) within an Eppendorf tube. This mixture was sonicated for 30 s in a cup-horn sonicator to generate a water/oil emulsion. […]\nAs described above, PLGA nanoparticles were synthesized encapsulating free ^225Ac or ^225Ac-BLPhen complex in a methanol/deionized water (MeOH/DI H2O) mixture. […] The encapsulation efficiency of ^225Ac was determined after washing the PLGA nanoparticle suspensions three times with DI H2O. […] The PLGA nanoparticle suspension, the supernatant, and the Eppendorf tube used for sonication were assayed using γ-ray spectroscopy on a high purity germanium detector coupled to a PC-based multichannel analyzer to account for total radioactivity distribution. […] Energy and efficiency calibrations were determined by γ-ray sources traceable to the National Institute of Standards and Technology.", "data": [{"smiles": "[225Ac]", "note": "[^225Ac, actinium-225]", "values": [{"measurement": "effect of increasing the water content in the MeOH/DI H2O mixture on encapsulation efficiency within PLGA nanoparticles", "result": "decreased the encapsulation efficiency"}]}]}
